Assays:
myeloperoxidase (MPO) [1] = target: T1, myeloperoxidase (MPO) (Homo sapiens (Human), UniProt P05164); assay: MPO peroxidation assay (Amplex Red assay); assay type: biochemical; conditions: potency range class
Outline: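 IC50 values come from a four-parameter fit of rates taken from the linear 180-540 s portion of a 15 min kinetic read of resorufin (Ex 535/Em 590 nm). Amplex Red (200 μM) plus 10 mM H2O2 was added after a 10 min room-temperature preincubation of inhibitor with 200 pM MPO and 40 nM H2O2 in 100 mM KPi, pH 7.4.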

myeloperoxidase (MPO) [2] = target: T1, myeloperoxidase (MPO); assay: MPO chlorination assay (APF assay); assay type: biochemical; conditions: potency range class
Outline: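 Chlorinating activity followed by APF cleavage to fluorescein (485/535 nm, 3 min kinetic read) after adding APF and 10 μM H2O2. Beforehand, 200 pM enzyme, compound and 120 mM NaCl sat 10 min at room temperature in 100 mM KPi, pH 7.4. Initial-rate slopes gave % inhibition; IC50 by Hill-slope fit.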

T1 sequence (P05164 49-745): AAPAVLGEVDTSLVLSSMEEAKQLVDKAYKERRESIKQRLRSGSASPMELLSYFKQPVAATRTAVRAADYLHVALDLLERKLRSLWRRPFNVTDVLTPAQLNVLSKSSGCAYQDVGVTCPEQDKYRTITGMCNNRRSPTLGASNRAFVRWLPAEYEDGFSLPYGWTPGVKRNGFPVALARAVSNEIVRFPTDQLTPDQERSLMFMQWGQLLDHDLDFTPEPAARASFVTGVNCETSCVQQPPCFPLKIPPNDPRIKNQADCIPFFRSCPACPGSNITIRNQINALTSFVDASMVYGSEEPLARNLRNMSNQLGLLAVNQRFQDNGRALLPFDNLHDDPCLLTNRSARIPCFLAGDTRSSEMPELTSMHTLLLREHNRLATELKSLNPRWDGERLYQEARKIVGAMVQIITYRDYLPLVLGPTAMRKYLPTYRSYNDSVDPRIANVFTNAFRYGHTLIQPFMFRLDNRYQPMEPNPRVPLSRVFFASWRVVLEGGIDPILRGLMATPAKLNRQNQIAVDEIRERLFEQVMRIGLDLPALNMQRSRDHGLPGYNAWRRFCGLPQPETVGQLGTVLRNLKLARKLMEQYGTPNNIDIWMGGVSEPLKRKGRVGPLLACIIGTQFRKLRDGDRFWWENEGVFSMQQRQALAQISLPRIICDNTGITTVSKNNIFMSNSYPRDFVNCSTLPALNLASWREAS

IC50 (myeloperoxidase (MPO) [1]) [nM]	IC50 (myeloperoxidase (MPO) [2]) [nM]	SMILES
1 to 100	1 to 100	Nc1cc(Cc2cnn(Cc3cccc([C@H]4CNC(Cc5ccccc5)C4)c3)c2)c2nn[nH]c2n1 (stereo partly drawn) [Example 203, 7-{[1-({3-[(3S)-5-benzylpyrrolidin-3-yl]phenyl}methyl)-1H-pyrazol-4-yl]methyl}-3H-[1,2,3]triazolo[4,5-b]pyridin-5-amine]
1 to 100	1 to 100	CCCC1C[C@@H](c2cccc(Cn3cc(Cc4cc(N)nc5[nH]nnc45)cn3)c2)CN1 (stereo partly drawn) [Example 204, 7-{[1-({3-[(3S)-5-propylpyrrolidin-3-yl]phenyl}methyl)-1H-pyrazol-4-yl]methyl}-3H-[1,2,3]triazolo[4,5-b]pyridin-5-amine]
1 to 100	1 to 100	CC(C)C1C[C@@H](c2cccc(Cn3cc(Cc4cc(N)nc5[nH]nnc45)cn3)c2)CN1 (stereo partly drawn) [Example 205, 7-{[1-({3-[(3S)-5-(propan-2-yl)pyrrolidin-3-yl]phenyl}methyl)-1H-pyrazol-4-yl]methyl}-3H-[1,2,3]triazolo[4,5-b]pyridin-5-amine]
1 to 100	101 to 999	Nc1cc(Cc2cnn(Cc3cccc(C4CCNCC4)c3)c2)c2nn[nH]c2n1 [Example 206, 7-[(1-{[3-(Piperidin-4-yl)phenyl]methyl}-1H-pyrazol-4-yl)methyl]-3H-[1,2,3]triazolo[4,5-b]pyridin-5-amine]
1 to 100	101 to 999	Nc1cc(Cc2cnn(Cc3cccc(CC4CCNCC4)c3)c2)c2nn[nH]c2n1 [Example 207, 7-[(1-{[3-(Piperidin-4-ylmethyl)phenyl]methyl}-1H-pyrazol-4-yl)methyl]-3H-[1,2,3]triazolo[4,5-b]pyridin-5-amine]
1 to 100	1 to 100	Nc1cc(Cc2cnn(Cc3cccc(C4CCCN4)c3)c2)c2nn[nH]c2n1 (stereo not shown) [Example 208, 7-[(1-{[3-(Pyrrolidin-2-yl)phenyl]methyl}-1H-pyrazol-4-yl)methyl]-3H-[1,2,3]triazolo[4,5-b]pyridin-5-amine]
101 to 999	101 to 999	CN1CCC(c2cccc(Cn3cc(Cc4cc(N)nc5[nH]nnc45)cn3)c2)CC1 [Example 209, 7-[(1-{[3-(1-Methylpiperidin-4-yl)phenyl]methyl}-1H-pyrazol-4-yl)methyl]-3H-[1,2,3]triazolo[4,5-b]pyridin-5-amine]
1 to 100	1 to 100	Nc1cc(Cc2cnn(Cc3cccc(C4CNC4)c3)c2)c2nn[nH]c2n1 [Example 210, 7-[(1-{[3-(Azetidin-3-yl)phenyl]methyl}-1H-pyrazol-4-yl)methyl]-3H-[1,2,3]triazolo[4,5-b]pyridin-5-amine]
1 to 100	1 to 100	CC1CC(c2cccc(Cn3cc(Cc4cc(N)nc5[nH]nnc45)cn3)c2)CCN1 (stereo not shown) [Example 211, 7-[(1-{[3-(2-Methylpiperidin-4-yl)phenyl]methyl}-1H-pyrazol-4-yl)methyl]-3H-[1,2,3]triazolo[4,5-b]pyridin-5-amine]
1 to 100	1 to 100	CC1CNCCC1c1cccc(Cn2cc(Cc3cc(N)nc4[nH]nnc34)cn2)c1 (stereo not shown) [Example 212, 7-[(1-{[3-(3-Methylpiperidin-4-yl)phenyl]methyl}-1H-pyrazol-4-yl)methyl]-3H-[1,2,3]triazolo[4,5-b]pyridin-5-amine]
1 to 100	101 to 999	Nc1cc(Cc2cnn(Cc3cccc(C4(O)CCNCC4F)c3)c2)c2nn[nH]c2n1 (stereo not shown) [Example 213, 4-(3-{[4-({5-Amino-3H-[1,2,3]triazolo[4,5-b]pyridin-7-yl}methyl)-1H-pyrazol-1-yl]methyl}phenyl)-3-fluoropiperidin-4-ol]
1 to 100	101 to 999	Nc1cc(Cc2cnn(Cc3cccc(C4CCNCC4(F)F)c3)c2)c2nn[nH]c2n1 (stereo not shown) [Example 214, 7-[(1-{[3-(3,3-Difluoropiperidin-4-yl)phenyl]methyl}-1H-pyrazol-4-yl)methyl]-3H-[1,2,3]triazolo[4,5-b]pyridin-5-amine]
1 to 100	101 to 999	Nc1cc(Cc2cnn(Cc3ccccc3C3CCNCC3)c2)c2nn[nH]c2n1 [Example 215, 7-[(1-{[2-(Piperidin-4-yl)phenyl]methyl}-1H-pyrazol-4-yl)methyl]-3H-[1,2,3]triazolo[4,5-b]pyridin-5-amine]
1 to 100	1 to 100	Nc1cc(Cc2cnn(Cc3cccc(C4CCNCC4F)c3)c2)c2nn[nH]c2n1 (stereo not shown) [Example 216, 7-[(1-{[3-(3-Fluoropiperidin-4-yl)phenyl]methyl}-1H-pyrazol-4-yl)methyl]-3H-[1,2,3]triazolo[4,5-b]pyridin-5-amine]
1 to 100	101 to 999	Nc1cc(Cc2cnn(Cc3cccc(N4CCNCC4)c3)c2)c2nn[nH]c2n1 [Example 217, 7-[(1-{[3-(Piperazin-1-yl)phenyl]methyl}-1H-pyrazol-4-yl)methyl]-3H-[1,2,3]triazolo[4,5-b]pyridin-5-amine]
101 to 999	1 to 100	Nc1cc(Cc2cnn(Cc3cccc(N4CCNC(c5cccc(Cl)c5)C4)c3)c2)c2nn[nH]c2n1 (stereo not shown) [Example 218, 7-{[1-({3-[3-(3-Chlorophenyl)piperazin-1-yl]phenyl}methyl)-1H-pyrazol-4-yl]methyl}-3H-[1,2,3]triazolo[4,5-b]pyridin-5-amine]
101 to 999	1 to 100	Nc1cc(Cc2cnn(Cc3cccc(N4CCNC(c5ccccc5)C4)c3)c2)c2nn[nH]c2n1 (stereo not shown) [Example 219, 7-[(1-{[3-(3-Phenylpiperazin-1-yl)phenyl]methyl}-1H-pyrazol-4-yl)methyl]-3H-[1,2,3]triazolo[4,5-b]pyridin-5-amine]
101 to 999	1 to 100	Nc1cc(Cc2cnn(Cc3cccc(N4CCN[C@@H](COCc5ccccc5)C4)c3)c2)c2nn[nH]c2n1 [Example 220, 7-{[1-({3-[(3R)-3-[(Benzyloxy)methyl]piperazin-1-yl]phenyl}methyl)-1H-pyrazol-4-yl]methyl}-3H-[1,2,3]triazolo[4,5-b]pyridin-5-amine]
1 to 100	1 to 100	C[C@@H]1CN(c2cccc(Cn3cc(Cc4cc(N)nc5[nH]nnc45)cn3)c2)C[C@H](C)N1 [Example 221, 7-{[1-({3-[cis-3,5-Dimethylpiperazin-1-yl]phenyl}methyl)-1H-pyrazol-4-yl]methyl}-3H-[1,2,3]triazolo[4,5-b]pyridin-5-amine]
101 to 999	101 to 999	Nc1cc(Cc2cnn(Cc3cccc(N4CCNC(C(F)(F)F)C4)c3)c2)c2nn[nH]c2n1 (stereo not shown) [Example 222, 7-{[1-({3-[3-(Trifluoromethyl)piperazin-1-yl]phenyl}methyl)-1H-pyrazol-4-yl]methyl}-3H-[1,2,3]triazolo[4,5-b]pyridin-5-amine]
101 to 999	1 to 100	Nc1cc(Cc2cnn(Cc3cccc(N4CCNC5(CCCCC5)C4)c3)c2)c2nn[nH]c2n1 [Example 223, 7-({1-[(3-{1,4-Diazaspiro[5.5]undecan-4-yl}phenyl)methyl]-1H-pyrazol-4-yl}methyl)-3H-[1,2,3]triazolo[4,5-b]pyridin-5-amine]
101 to 999	1 to 100	Nc1cc(Cc2cnn(Cc3cccc(N4C[C@@H]5C[C@H]4CN5)c3)c2)c2nn[nH]c2n1 [Example 224, 7-{[1-({3-[(1S,4S)-2,5-Diazabicyclo[2.2.1]heptan-2-yl]phenyl}methyl)-1H-pyrazol-4-yl]methyl}-3H-[1,2,3]triazolo[4,5-b]pyridin-5-amine]
101 to 999	1 to 100	Nc1cc(Cc2cnn(Cc3cccc(N4CCNC5(CCC5)C4)c3)c2)c2nn[nH]c2n1 [Example 225, 7-({1-[(3-{5,8-Diazaspiro[3.5]nonan-8-yl}phenyl)methyl]-1H-pyrazol-4-yl}methyl)-3H-[1,2,3]triazolo[4,5-b]pyridin-5-amine]
1 to 100	101 to 999	C[C@@H]1CN(c2cc(Cn3cc(Cc4cc(N)nc5[nH]nnc45)cn3)ccc2F)C[C@H](C)N1 [Example 226, 7-{[1-({3-[cis-3,5-Dimethylpiperazin-1-yl]-4-fluorophenyl}methyl)-1H-pyrazol-4-yl]methyl}-3H-[1,2,3]triazolo[4,5-b]pyridin-5-amine]
101 to 999	101 to 999	Nc1cc(Cc2cnn(Cc3cccc(N4CCNCC4Cc4ccccc4)c3)c2)c2nn[nH]c2n1 (stereo not shown) [Example 227, 7-[(1-{[3-(2-Benzylpiperazin-1-yl)phenyl]methyl}-1H-pyrazol-4-yl)methyl]-3H-[1,2,3]triazolo[4,5-b]pyridin-5-amine]
101 to 999	101 to 999	C[C@@H]1CN(c2cccc(Cn3cc(Cc4cc(N)nc5[nH]nnc45)cn3)c2)C[C@H](C)O1 [Example 228, 7-{[1-({3-[cis-2,6-Dimethylmorpholin-4-yl]phenyl}methyl)-1H-pyrazol-4-yl]methyl}-3H-[1,2,3]triazolo[4,5-b]pyridin-5-amine]
101 to 999	1 to 100	Nc1cc(Cc2cnn(Cc3cccc(N4CC5C(N)C5C4)c3)c2)c2nn[nH]c2n1 [Example 229, (1R,5S,6S)-3-(3-{[4-({5-Amino-3H-[1,2,3]triazolo[4,5-b]pyridin-7-yl}methyl)-1H-pyrazol-1-yl]methyl}phenyl)-3-azabicyclo[3.1.0]hexan-6-amine]
1 to 100	1 to 100	Nc1cc(Cc2cnn(Cc3cccc(Oc4cccc5c4CNC5)c3)c2)c2nn[nH]c2n1 [Example 231, 7-[(1-{[3-(2,3-Dihydro-1H-isoindol-4-yloxy)phenyl]methyl}-1H-pyrazol-4-yl)methyl]-3H-[1,2,3]triazolo[4,5-b]pyridin-5-amine]
1 to 100	101 to 999	COC(=O)CNCc1cccc(Oc2cccc(Cn3cc(Cc4cc(N)nc5[nH]nnc45)cn3)c2)c1 [Example 232, Methyl 2-({[3-(3-{[4-({5-amino-3H-[1,2,3]triazolo[4,5-b]pyridin-7-yl}methyl)-1H-pyrazol-1-yl]methyl}phenoxy)phenyl]methyl}amino)acetate]
